The results in this text go back to patent US9623021B2, “Nuclear receptor binding agents” (GTX, Inc., priority 2007, dated 2017).

The Ki is the equilibrium dissociation constant of an inhibitor or competing ligand from its target.

Data set [1] addresses ERβ ligand binding domain (Homo sapiens (Human), UniProt Q92731). Briefly: Competitive [3H]-estradiol radioligand binding, ERβ (Example 21). Particulars: ratio between the binding constants of ER-α and ER-β. The method, then:
(§1) ER binding affinity was determined via one of the following methods:
(§2) Briefly, the incubation mixture was filtered through a high affinity protein binding filter, and washed several times to remove any unbound radioactivity. The filter plate was air dried and sealed on the bottom.
(§3) Following incubation, plates were harvested onto GF/B filters and radioactivity was measured with a TopCount NXT (PerkinElmer). Nonspecific binding was subtracted from total binding to yield specific binding.

The subject of data set [2] is LNCaP prostate cancer cells. Briefly: LNCaP prostate cancer cell proliferation (3H thymidine incorporation). It is filed as cell-based. Particulars: treated for 6 days, FIG. 21. The method, then:
(§4) The effects of treatment of an ER-β selective NRBA of this invention on cancer cell proliferation was examined using LNCaP prostate cancer cells and C-26 colon cancer cells. LNCaP or C-26 cells were plated in growth medium in 24 well and 6 well plates, respectively. LNCaP cells were treated for 6 days and C-26 cells were treated for 3 days at the indicated concentration. ^3H thymidine incorporation was measured at the end of treatment as an indicator of cell proliferation.
(Dividing cells build labelled thymidine or BrdU into new DNA.)

The test system of the next data set is paw edema. Briefly: Carrageenan-induced paw edema (acute inflammation model). It is filed as in vivo. Particulars: per-oral, 1 hr prior to Carrageenan challenge; measured 4 hours post-Carrageenan injection. The procedure: FIG. 14 depicts the effect of 12b on the edema volume which was induced by Carrageenan (i.e. Carrageenan-induce raw paw edema as an acute inflammation model).
To determine the anti-inflammatory effects of ER-β NRBAs in vivo, animal paws were injected with carrageenan, which elicits an acute local inflammatory response. Per-oral treatment of 12b.
On the technique in general: The carrageenan paw model is a standard test of acute inflammation.

The subject of data set [3] is LNCaP cells and human prostate stromal cells xenograft. In words: LNCaP-stromal cell xenograft tumor growth. It is filed as in vivo, nude mice. Particulars: 30 mg/kg/day for 21 days, by day 21. The method, then:
Prostate tumor xenografts were established with LNCaP cells and human prostate stromal cells in nude mice to establish the in vivo anti-proliferative effects of these ER-β NRBAs. A 4:1 ratio (based on cell number) of LNCaP:stroma cells was injected subcutaneously in nude mice and allowed to grow until they attained 100 mm^3 in volume, as measured by calipers. […] Tumor volumes were measured twice a week and percent tumor volume calculated, after 10, 14 and 21 days.

The target in data set [4] is ERα ligand binding domain (Homo sapiens (Human), UniProt P03372). In words: Competitive [3H]-estradiol radioligand binding, ERα (Example 21). The method, then: as §1, §2, §3
ERα ligand binding domain, sequence (P03372 whole entry, looked up, species assumed, the tested form may be a part): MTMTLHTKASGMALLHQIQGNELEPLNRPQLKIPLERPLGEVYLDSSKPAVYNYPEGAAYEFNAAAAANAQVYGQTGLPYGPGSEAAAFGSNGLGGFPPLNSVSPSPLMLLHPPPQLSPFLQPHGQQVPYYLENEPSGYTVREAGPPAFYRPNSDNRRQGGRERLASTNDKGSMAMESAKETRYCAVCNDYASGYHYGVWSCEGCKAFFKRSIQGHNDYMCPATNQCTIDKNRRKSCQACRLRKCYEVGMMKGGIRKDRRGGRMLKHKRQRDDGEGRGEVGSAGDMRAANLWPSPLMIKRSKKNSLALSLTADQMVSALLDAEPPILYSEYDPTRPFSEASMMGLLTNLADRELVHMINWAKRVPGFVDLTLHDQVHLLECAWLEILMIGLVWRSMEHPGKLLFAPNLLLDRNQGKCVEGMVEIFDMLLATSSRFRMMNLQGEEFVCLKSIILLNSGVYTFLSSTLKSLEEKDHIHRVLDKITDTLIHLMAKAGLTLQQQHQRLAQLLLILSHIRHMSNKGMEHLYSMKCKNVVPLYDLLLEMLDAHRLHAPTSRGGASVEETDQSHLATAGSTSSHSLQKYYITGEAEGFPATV
For a further data set, the target named is ER-α (Rattus norvegicus (Rat), UniProt P06211). The data set is classed as cell-based. The conditions noted are these: 100 nM NRBA compared to 1 nM estradiol. The procedure:
COS or 293 cells were plated in DME without phenol red+10% cs FBS at 90,000 cells per well in 24 well plates, and were transfected with 0.25 μg of the vector “ERE-LUC”, where a firefly luciferase gene was driven by two estrogen responsive elements and 0.02 μg of the control CMV-LUC, Renilla where a luciferase gene was driven by a CMV promoter. […] All the receptors were cloned from rat tissue into the PCR3.1 vector backbone. Twenty four hours post transfection, cells were treated with compounds of this invention, estrogen, DHT, and other NRBAs or combinations thereof. Cells were harvested 48 hrs after transfection, and assayed for firefly and Renilla luciferase activity.

A further data set relates to C-26 colon cancer cells. Briefly: C-26 colon cancer cell proliferation (3H thymidine incorporation). The data set is classed as cell-based. The conditions noted are these: treated for 3 days, FIG. 22. The procedure: as §4
The subject of data set [5] is Rat Aortic Smooth Muscle Cells (RASMC). Briefly: RASMC cell proliferation assay (WST-1). Particulars: 10 μM and 30 μM.
The next data set has as its system uterus. Briefly: Uterotropic assay. Particulars: 10 mg/kg/day orally, 3 days. The procedure:
Statistical differences among groups were evaluated by one-way ANOVA. Rats were treated for 3 consecutive days and then sacrificed 24 h after the last dose. The body of the uterus was cut just above its junction with the cervix and at the junction of the uterine horns with the ovaries. The uterus was weighed with and without intrauterine fluid. Statistical comparisons were made between the weights of empty uteri.

SMILES strings stand for the structures.

ERβ ligand binding domain, sequence (Q92731 264-498, species assumed): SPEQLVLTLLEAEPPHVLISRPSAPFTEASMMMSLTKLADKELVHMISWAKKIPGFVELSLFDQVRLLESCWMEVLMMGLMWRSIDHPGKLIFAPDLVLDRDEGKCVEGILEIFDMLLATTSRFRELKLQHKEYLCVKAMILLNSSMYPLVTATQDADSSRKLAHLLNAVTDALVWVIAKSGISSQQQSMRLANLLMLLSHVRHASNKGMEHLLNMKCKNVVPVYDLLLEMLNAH

As to `O=c1c2ccc(O)cc2c(Br)cn1-c1ccc(O)cc1` [Compound 12b, 4-bromo-6-hydroxy-2-(4-hydroxyphenyl)-isoquinolin-1(2H)-one], the “Ki Ratio (ER-α/ER-β)” value in data set [1] turned out to be 20. For the same compound, the “growth of LNCaP prostate cancer cells” value in [2] is recorded as “significantly inhibited the growth”. Also, in the data set with paw edema, the “reduction in paw edema” value is given as 53%. In addition, the “tumor growth (percent tumor volume)” value in [3] is reported as “inhibited the growth of tumor significantly”. For the same compound, the Ki in data set [4] turned out to be 998 nM. The “Estradiol activity at 100 nM, ER-α” value on ER-α worked out at 31.2%. The “growth of C-26 colon cancer cells” value in the data set with C-26 colon cancer cells is “significantly inhibited the growth”.
For `CC/C(=C(\c1ccccc1)c1ccc(OCCN(C)C)cc1)c1ccccc1` [Tamoxifen, tamoxifen], in [5], the “cell numbers compared to day 0” value is “toxicity”. For the same compound, the “uterine growth / uterine weight” value with uterus is reported as “stimulated the proliferation of uterus significantly”.
